Columns and labels:
[1] = (§1) Inhibition of Nav in mouse Neuro-2a cells assessed as inhibition of ouabain and veratridine-induced cytotoxicity after 24 hrs by WST-8 assay; format: cell-based
Neuro-2a = assay: as §1; format: cell-based

| Structure (SMILES) | EC50 [1] | inhibition (Neuro-2a) |
| --- | --- | --- |
| C[C@]1(O)[C@@H]2O[C@]3(O)O[C@H]1[C@@H](O)[C@@]1(NC(=N)N[C@H](O)[C@@H]21)[C@@H]3O | 130 nM | Dose-dependent effect |
| N=C1N[C@H](O)[C@H]2[C@H]3O[C@]4(O)O[C@H]([C@@H]3CO)[C@@H](O)[C@@]2(N1)[C@@H]4O | 6.5 nM | Dose-dependent effect |
| NC1=N[C@H](O)[C@H]2[C@H]3O[C@]4(O)O[C@@H]([C@@H](O)[C@@]2(N1)[C@@H]4O)[C@]3(O)CO [TETRODOTOXIN] | 2.1 nM | Dose-dependent effect |
| C[C@H]1[C@H]2O[C@@]3(O)O[C@@H]1[C@@H]1[C@@H](O)NC(=N)N[C@]1([C@@H]2O)[C@@H]3O | 400 nM | Dose-dependent effect |
